{"source": "patent US10857214B2", "about": "“Compositions and methods for treating gluten intolerance and disorders arising therefrom” (Codexis, Inc., priority 2015, dated 2020)", "key": {"[1]": {"tested_on": "33mer from α-gliadin", "assay": "digestion of 33mer peptide by fluid fractions, MALDI-TOF", "format": "biochemical", "experimental": "Left: Silver-stain SDS-PAGE of fraction 1 containing nepenthesin, and MALDI spectrum of 33mer peptide processed with fraction 1. Right: Silver-stain SDS-PAGE of fraction 2 containing an unknown enzyme, and MALDI spectrum of 33mer peptides processed with fraction 2. MALDI of undigested 33mer in red, digested 33mer in black.\nTwo proteolytic components were isolated. Activity was retested against a 33mer from α-gliadin using MALDI-TOF. Fractions were also analyzed for protein content using MALDI-TOF (sinapinic acid as matrix), highlighting a single peak at 29 kDa. Fractions enriched in non-specific cleavage properties were further purified using gel filtration and retested for purity and for activity against 33mer.\nFluid protein concentrate was exchanged into 50 mM glycine and subjected to column chromatofocusing with fractionation. Fractions were analyzed for activity using MALDI-TOF (Sciex 5800 TOF/TOF, α-cyano-4-hydroxycinnamic acid as matrix). To test for activity, protein substrates were incubated with aliquots of column fractions at room temperature for 20 minutes and the digests analyzed by MALDI-TOF. Fractions enriched in proline cleavage were manually purified by reversed phase chromatography on Protein MacroTraps (Optimize Technologies). Enzyme was eluted and confirmed active against protein substrates."}, "[2]": {"tested_on": "crude gliadin", "assay": "crude gliadin slurry clarification (gravimetric analysis, turbidity at 595 nm)", "format": "biochemical, wheat", "conditions": "10 g/L crude gliadin slurry, pH 2.5, 37° C.; enzyme alone", "experimental": "Inset: temporal profiling of slurry (left to right: 0, 30, 60, 90 min) using the protein-enriched fluid extract. […] Turbidity of the digested gliadin was monitored as absorbance at 595 nm ([…]). Black lines represent the turbidity of the gliadin slurry in the absence of protease. Measurement precision was <3% RSD (n=3). […] Data taken from FIGS. 8A-8C. Values reported as milligrams of gliadin per micromolar enzyme concentration per minute digestion time. […] Digest progress was monitored by gravimetric analysis, optical transmission, SDS-PAGE and mass spectrometry. […] For monitoring with optical transmission, digestion reactions were conducted in 96-well plate with ≥3 replicates of each reaction condition, and turbidity monitored at 595 nm at 37° C. every 2 minutes, for 90 minutes (SpectraMax plate reader, Molecular Devices). […] An aliquot of the reaction mixture was analyzed on an 8% SDS-PAGE gel. The remaining amount was centrifuged and the supernatant was analyzed by mass spectrometry."}, "[3]": {"tested_on": "α-gliadin peptide 33mer", "assay": "digestion profile of α-gliadin peptide 33mer under dilute conditions, LC-MS", "format": "biochemical", "conditions": "equivalent digestion conditions at optimum pH (2 for pepsin, 7 for MX)", "excerpt": "Normalized relative abundance measured from LC-MS ion chromatograms, using caffeine as internal standard. Figure discloses SEQ ID NOS 88, 28, and 89-91, respectively, in order of appearance.\nUsing the pepsin-resistant 33mer, the evolution of peptide products was monitored under dilute conditions."}, "[4]": {"tested_on": "crude gliadin", "assay": "SDS-PAGE and proteomic LC-MS/MS analysis of crude gliadin digests", "format": "biochemical, Triticum aestivum", "experimental": "Digestions at pH 2.5 and 37° C., for 90 min. All concentrations in μM. M: Molecular weight markers, and gliadin: total crude gliadin in the absence of protease. […] Peptide data from LC-MS/MS runs, with intensities obtained using Protein Deconvolution 1.0. […] A stock gliadin slurry of 20-50 mg/ml was prepared in acidic solution (100 mM glycine HCl, pH 2.5) and briefly sonicated to further break up large particulates and promote suspension. Digestions of 10 mg/mL gliadin slurries were initiated by addition of enzyme (pepsin, fluid enzymes or both) and held at 37° C. with gentle rotation. Digest progress was monitored by gravimetric analysis, optical transmission, SDS-PAGE and mass spectrometry. For gravimetric analysis, digests were quenched by boiling and treated with TCA/chloroform, followed by centrifugation to recover undigested or poorly digested protein. For monitoring with optical transmission, digestion reactions were conducted in 96-well plate with ≥3 replicates of each reaction condition, and turbidity monitored at 595 nm at 37° C. every 2 minutes, for 90 minutes (SpectraMax plate reader, Molecular Devices). The plate was shaken at medium speed briefly between measurements. The digests were quenched after 90 min reaction by boiling for 10 minutes (confirmed to have no impact on digestion profile, a posteriori). An aliquot of the reaction mixture was analyzed on an 8% SDS-PAGE gel. The remaining amount was centrifuged and the supernatant was analyzed by mass spectrometry. Supernatant was analyzed by data-dependent LC-MS/MS, in two 1-hour reversed phase gradient runs, configured for top-10 ion selection using CID in a high/low configuration. In one run, ion selection was restricted to 2+ and higher charge states. In the other run, ion selection was applied to 1+ charge states only. Data from both runs were combined and searched against all UniprotKB/Swiss-Prot entries for gliadin and glutenin from Triticum aestivum (25 proteins), using Mascot v2.3, configured for non-specific digestions and filtered for peptide hits with p<0.05. For estimation of peptide size distribution, all LC-MS spectra were combined and deconvoluted in Protein Deconvolution v1.0, with appropriate settings. For label-free quantitative analysis using the subset of the digest identified in the database search, the hit list was combined with the raw data in Mass Spec Studio and used to generate a set of peptide ion chromatograms, integrated over all isotopes to determine a weight-average intensity for each peptide sequence identified."}, "[5]": {"tested_on": "crude gliadin digests treated with human transglutaminase-2", "assay": "TG2-induced deamidation of gliadin digestion products", "format": "biochemical", "conditions": "0.1 mg/mL human transglutaminase-2, pH 7.5, 37° C., 90 minutes", "excerpt": "Fractional deamidation quantified for all peptides from ion chromatogram intensities; data presented as a ratio, where the antigenic peptide deamidation is normalized to the non-antigenic peptide deamidation at the indicated protease concentration. Antigenic regions defined using the DQ2 criteria, inset table.\nWhether enhanced digestion profiles would impact deamidation in antigenic regions was investigated. The recognition of immunodominant peptides by T cells is amplified when these peptides are deamidated in their core binding region by tissue transglutaminase 2 (TG2), particularly at position P4 or P6 in HLA DQ2 associated celiac disease. […] Crude gliadin digests were analyzed for the conversion of non-deamidated peptides to deamidated forms, and sorted all the peptides using a previously published algorithm for the identification of DQ2 binding motifs.\nSupernatants from crude gliadin digests were treated with 0.1 mg/mL human transglutaminase-2 (R&D Systems, Cat. 4376-TG-050) in 100 mM Tris-HCl pH 7.5, 2 mM CaCl2 at 37° C. for 90 minutes, and quenched at 95° C. for 15 minutes, following a published protocol. Treated digests were analyzed by data-dependent LC-MS/MS as described above, allowing for variable N and Q deamidation in database searches. […]"}, "[6]": {"tested_on": "NOD DQ8 mice", "assay": "transgenic NOD/HLA-DQ8 mouse model of gliadin sensitivity", "conditions": "gliadin codigested with pepsin 100:1 and fluid enzyme 264:1 or nepenthesin II 100:1; pepsin alone is positive control"}}}
{"substance": "pepsin: gastric enzyme (EC 3.4.23.1) used as control protease", "values": [{"measurement": "digestion of 33mer peptide derived from α-gliadin", "setting": "[1]", "result": "highly resistant to digestion"}, {"measurement": "maximum clarification rate", "setting": "[2]", "result": 0.3, "unit": "mg/µM/min"}, {"measurement": "hydrolysis of 33mer peptide", "setting": "[3]", "result": "Neither pepsin nor a bacterial prolyl endoprotease from Myxococcus xanthus (MX) were able to hydrolyse"}, {"measurement": "digestion of total protein of crude gliadin by SDS-PAGE", "setting": "[4]; 10 mg/ml gliadin, pH 2.5, 37° C., 90 min", "result": "could not be achieved"}, {"measurement": "detected digest product having a molecular weight greater than 4000 Da", "setting": "[4]; 10 mg/ml gliadin, pH 2.5, 37° C., 90 min, high concentrations of pepsin", "result": 25, "unit": "wt %"}, {"measurement": "average peptide length, label-free, all peptide signals", "setting": "[4]; 10 mg/ml gliadin, pH 2.5, 37° C., 90 min, pepsin 5 μM, fluid extract 0.23 μM", "result": 19.2, "unit": "residues"}, {"measurement": "weighted average peptide length, identified peptides", "setting": "[4]; pepsin 5 μM, fluid protease 0.46 μM, co-digestion using these two concentrations", "result": 16.9, "unit": "residues"}, {"measurement": "peptide conversion (deamidation) in antigenic regions compared to non-antigenic regions", "setting": "[5]", "result": "over 5.5 times"}, {"measurement": "small intestinal CD3+ intraepithelial lymphocyte (IEL) counts", "setting": "[6]", "result": "significant increases"}]}
